Measured values from PubChem BioAssay (NCI).
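Five concentrations, 48 hours, 96-well plates. GI50 = concentration required for 50% inhibition of growth. TGI denotes the concentration required for complete inhibition of growth.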

Experiments:
Test in all cases: growth of human tumour cells (NCI), 48 h
HT29 colon = tested on: HT29 colon
K-562 leukemia = tested on: K-562 leukemia
KM12 colon = tested on: KM12 colon
MOLT-4 leukemia = tested on: MOLT-4 leukemia
NCI-H522 lung = tested on: NCI-H522 lung
OVCAR-4 ovarian = tested on: OVCAR-4 ovarian
OVCAR-5 ovarian = tested on: OVCAR-5 ovarian
SW-620 colon = tested on: SW-620 colon
LOX IMVI melanoma = tested on: LOX IMVI melanoma
SNB-19 CNS = tested on: SNB-19 CNS

Clc1ccc(C(n2cc(Br)cn2)n2cc(Br)cn2)cc1
TGI (HT29 colon): 26.9 µM | TGI (K-562 leukemia): 53.6 µM | TGI (KM12 colon): 31.6 µM | TGI (MOLT-4 leukemia): 47.9 µM | TGI (NCI-H522 lung): 27.7 µM | TGI (OVCAR-4 ovarian): 26.4 µM | TGI (OVCAR-5 ovarian): 29.9 µM | TGI (SW-620 colon): 34.6 µM

COc1cccc(/C=N/C(/N=C/c2cccc(OC)c2O)c2cccc(OC)c2O)c1O
TGI (HT29 colon): > 100 µM | TGI (K-562 leukemia): > 100 µM | TGI (KM12 colon): 76.7 µM | TGI (LOX IMVI melanoma): 58 µM | TGI (NCI-H522 lung): 49.2 µM | TGI (OVCAR-5 ovarian): 73.8 µM | TGI (SNB-19 CNS): > 100 µM | TGI (SW-620 colon): > 100 µM

CC(=O)O[C@H]1C(=O)[C@@]2(C)C(C(OC(=O)c3ccccc3)C3[C@@H](O)C(OC(=O)[C@@H](O)[C@H](NC(=O)c4ccccc4)c4ccc(C(F)(F)F)cc4)C(C)=C1C3(C)C)[C@]1(OC(C)=O)CO[C@@H]1C[C@@H]2O (stereo partly drawn)
TGI (HT29 colon): > 25 µM | TGI (K-562 leukemia): > 25 µM | TGI (LOX IMVI melanoma): > 25 µM | TGI (MOLT-4 leukemia): > 25 µM | TGI (NCI-H522 lung): 21.1 µM | TGI (OVCAR-5 ovarian): > 25 µM | TGI (SNB-19 CNS): > 25 µM | TGI (SW-620 colon): > 25 µM

O=C(O)C1CC(O)CN1 (stereo not drawn)
TGI (HT29 colon): > 100 µM | TGI (K-562 leukemia): > 100 µM | TGI (KM12 colon): > 100 µM | TGI (LOX IMVI melanoma): > 100 µM | TGI (MOLT-4 leukemia): > 100 µM | TGI (OVCAR-4 ovarian): > 100 µM | TGI (OVCAR-5 ovarian): > 100 µM | TGI (SNB-19 CNS): > 100 µM | TGI (SW-620 colon): > 100 µM

O=C(/C=C/c1ccc(C(F)(F)F)cc1)c1ccc(Nc2nc(NCCO)nc(Nc3ccc(Cl)cc3)n2)cc1
GI50 (HT29 colon): 2.32 µM | TGI (HT29 colon): 6.37 µM | GI50 (K-562 leukemia): 2.83 µM | TGI (K-562 leukemia): > 100 µM | GI50 (KM12 colon): 2.13 µM | TGI (KM12 colon): 4.84 µM | GI50 (LOX IMVI melanoma): 1.66 µM | TGI (LOX IMVI melanoma): 3.22 µM | GI50 (MOLT-4 leukemia): 3.56 µM | TGI (MOLT-4 leukemia): 12.6 µM | GI50 (NCI-H522 lung): 7.82 µM | TGI (NCI-H522 lung): 23.6 µM | GI50 (OVCAR-4 ovarian): 4.14 µM | TGI (OVCAR-4 ovarian): 15.5 µM | GI50 (OVCAR-5 ovarian): 5.93 µM | TGI (OVCAR-5 ovarian): 18.8 µM | GI50 (SW-620 colon): 2.17 µM | TGI (SW-620 colon): 5.04 µM

COc1cc(C2CC(c3ccc(Nc4ccnc5cc(Cl)ccc45)cc3)=NN2c2ccc(Cl)cc2)cc(OC)c1OC (stereo not drawn)
GI50 (HT29 colon): 2.66 µM | TGI (HT29 colon): > 100 µM | GI50 (K-562 leukemia): 0.857 µM | TGI (K-562 leukemia): > 100 µM | GI50 (KM12 colon): 1.67 µM | TGI (KM12 colon): > 100 µM | GI50 (LOX IMVI melanoma): 1.66 µM | TGI (LOX IMVI melanoma): 11.3 µM | GI50 (MOLT-4 leukemia): 3.86 µM | TGI (MOLT-4 leukemia): > 100 µM | GI50 (NCI-H522 lung): 1.85 µM | TGI (NCI-H522 lung): 50.2 µM | GI50 (OVCAR-5 ovarian): 6.08 µM | TGI (OVCAR-5 ovarian): > 100 µM | GI50 (SNB-19 CNS): 4.91 µM | TGI (SNB-19 CNS): > 100 µM | GI50 (SW-620 colon): 2.55 µM | TGI (SW-620 colon): > 100 µM

COC(=O)/C=C/c1cc2c(cc1-c1c(C(=O)O)cc(OC)c(OC)c1OC)OCO2
TGI (HT29 colon): > 10 µM | TGI (K-562 leukemia): > 10 µM | TGI (KM12 colon): > 10 µM | TGI (LOX IMVI melanoma): > 10 µM | TGI (MOLT-4 leukemia): > 10 µM | TGI (NCI-H522 lung): > 10 µM | TGI (OVCAR-4 ovarian): > 10 µM | TGI (SNB-19 CNS): > 10 µM | TGI (SW-620 colon): > 10 µM

CN(C)CC/[N+]([O-])=C(/c1ccccc1)C12CC3CC(CC(C3)C1)C2
TGI (HT29 colon): 23.8 µM | TGI (K-562 leukemia): 30.8 µM | TGI (KM12 colon): 33.3 µM | TGI (LOX IMVI melanoma): 31.2 µM | TGI (MOLT-4 leukemia): 34.1 µM | TGI (NCI-H522 lung): 29.2 µM | TGI (OVCAR-5 ovarian): 32 µM | TGI (SNB-19 CNS): 37.5 µM

COC(C)(C)C/C=C/C(C)=C/C=C/C(C)=C\C=C\C(C)=C\C=C\C=C(C)\C=C\C=C(C)\C=C\C=C(C)\C=C\CC(C)(C)OC
GI50 (HT29 colon): > 150 µg/mL | TGI (HT29 colon): > 150 µg/mL | GI50 (K-562 leukemia): > 150 µg/mL | TGI (K-562 leukemia): > 150 µg/mL | GI50 (LOX IMVI melanoma): > 150 µg/mL | TGI (LOX IMVI melanoma): > 150 µg/mL | GI50 (MOLT-4 leukemia): > 150 µg/mL | TGI (MOLT-4 leukemia): > 150 µg/mL | GI50 (NCI-H522 lung): > 150 µg/mL | TGI (NCI-H522 lung): > 150 µg/mL | GI50 (OVCAR-4 ovarian): > 150 µg/mL | TGI (OVCAR-4 ovarian): > 150 µg/mL | GI50 (OVCAR-5 ovarian): > 150 µg/mL | TGI (OVCAR-5 ovarian): > 150 µg/mL | GI50 (SNB-19 CNS): > 150 µg/mL | TGI (SNB-19 CNS): > 150 µg/mL | GI50 (SW-620 colon): > 150 µg/mL | TGI (SW-620 colon): > 150 µg/mL

Nc1nc2c3nc(Nc4ccccc4)sc3nc(=O)n2c2sc(Nc3ccccc3)nc12
TGI (HT29 colon): > 100 µM | TGI (K-562 leukemia): > 100 µM | TGI (MOLT-4 leukemia): > 100 µM | TGI (NCI-H522 lung): > 100 µM | TGI (OVCAR-4 ovarian): > 100 µM | TGI (SNB-19 CNS): > 100 µM | TGI (SW-620 colon): > 100 µM

Cc1cc(Cl)ccc1NC(=O)CC1SC(=Nc2ccccc2Cl)NC1=O (stereo not drawn)
TGI (HT29 colon): > 100 µM | TGI (K-562 leukemia): > 100 µM | TGI (KM12 colon): > 100 µM | TGI (MOLT-4 leukemia): > 100 µM | TGI (NCI-H522 lung): 80.4 µM | TGI (OVCAR-4 ovarian): > 100 µM | TGI (OVCAR-5 ovarian): > 100 µM | TGI (SNB-19 CNS): > 100 µM | TGI (SW-620 colon): > 100 µM

N#CC1CC2(CCN1C(=O)c1ccccc1)OCCO2 (stereo not drawn)
TGI (HT29 colon): > 100 µM | TGI (K-562 leukemia): > 100 µM | TGI (KM12 colon): > 100 µM | TGI (MOLT-4 leukemia): > 100 µM | TGI (NCI-H522 lung): 78.2 µM | TGI (OVCAR-4 ovarian): > 100 µM | TGI (OVCAR-5 ovarian): > 100 µM | TGI (SNB-19 CNS): > 100 µM | TGI (SW-620 colon): > 100 µM

COC(=O)CC[C@H](Cc1ccccc1)NC(=O)c1csc([C@@H](C[C@H](C(C)C)N(C)C(=O)[C@@H](NC(=O)[C@H]2CCCCN2C)C(C)C)OC(C)=O)n1
GI50 (HT29 colon): < 0.0025 µM | TGI (HT29 colon): > 25 µM | GI50 (K-562 leukemia): < 0.0025 µM | TGI (K-562 leukemia): > 25 µM | GI50 (KM12 colon): < 0.0025 µM | TGI (KM12 colon): > 25 µM | GI50 (LOX IMVI melanoma): < 0.0025 µM | TGI (LOX IMVI melanoma): > 25 µM | GI50 (MOLT-4 leukemia): < 0.0025 µM | TGI (MOLT-4 leukemia): 10.5 µM | GI50 (OVCAR-4 ovarian): 0.023 µM | TGI (OVCAR-4 ovarian): > 25 µM | GI50 (OVCAR-5 ovarian): 0.00816 µM | TGI (OVCAR-5 ovarian): > 25 µM | GI50 (SW-620 colon): < 0.0025 µM | TGI (SW-620 colon): > 25 µM

Cc1ccc(O)c(NC(=O)c2ccc(CNc3ccnc(C(F)(F)F)c3)cc2)c1
GI50 (HT29 colon): 23.1 µM | TGI (HT29 colon): > 100 µM | GI50 (K-562 leukemia): 1.54 µM | TGI (K-562 leukemia): 17.9 µM | GI50 (KM12 colon): 4.75 µM | TGI (KM12 colon): 24.3 µM | GI50 (LOX IMVI melanoma): 5.64 µM | TGI (LOX IMVI melanoma): 31.4 µM | GI50 (MOLT-4 leukemia): 1.77 µM | TGI (MOLT-4 leukemia): 20.6 µM | GI50 (OVCAR-4 ovarian): 26.7 µM | TGI (OVCAR-4 ovarian): > 100 µM | GI50 (OVCAR-5 ovarian): 16.3 µM | TGI (OVCAR-5 ovarian): 69.1 µM | GI50 (SNB-19 CNS): 6.15 µM | TGI (SNB-19 CNS): 48 µM | GI50 (SW-620 colon): 8.7 µM | TGI (SW-620 colon): 42.4 µM
